Results as given in patent publication US9562053B2, “Benzo-fused heterocyclic derivatives useful as agonists of GPR120” (Janssen Pharmaceutica NV, priority 2013, dated 2017).
pEC50: −log10 of the molar value.

These molecules were tested against T1, Human GPR120 short form (Homo sapiens, UniProt Q5NUL3) (assay: Human GPR120 in Calcium Flux Assay, Procedure Calcium A (2500 cells/well)).
T1 construct: expressed in transfected cells
T1 sequence (Q5NUL3 1-361): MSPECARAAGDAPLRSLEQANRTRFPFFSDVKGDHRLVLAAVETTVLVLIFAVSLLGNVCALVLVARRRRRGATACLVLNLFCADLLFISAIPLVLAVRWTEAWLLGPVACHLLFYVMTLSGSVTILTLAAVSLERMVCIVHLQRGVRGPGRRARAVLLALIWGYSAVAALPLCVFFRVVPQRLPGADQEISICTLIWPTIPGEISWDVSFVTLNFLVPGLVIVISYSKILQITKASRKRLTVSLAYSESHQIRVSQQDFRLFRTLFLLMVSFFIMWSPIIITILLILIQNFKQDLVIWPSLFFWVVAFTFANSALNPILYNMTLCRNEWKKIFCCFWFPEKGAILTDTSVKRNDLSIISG
Assay type: cell-based
Procedure, shortened: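 HEK293 cells stably expressing GPR120 short isoform, 2500 cells/well, serum-starved 1 h, loaded with Fluo-4 NW plus probenecid (30 min 37 °C, 15 min RT). Compounds prepared at 0.012–100 μM, 0.2% DMSO final. FLIPR calcium signal over 300 s as Fmax−Fmin; EC50 from variable-slope fit (Hill <2).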
A pEC50 of 7.17 was found for CCOc1c(Cl)cc2cc(CC)oc2c1COc1ccc(CCC(=O)O)c(C)c1C [Compound 62, 3-{4-[(5-Chloro-6-ethoxy-2-ethyl-1-benzofuran-7-yl)methoxy]-2,3-dimethylphenyl}propanoic acid] in this work. A pEC50 of 6.88 was found for Cc1nc2cc(Cl)cc(COc3ccc(CCC(=O)O)c(C)c3C)c2o1 [Compound 84, 3-{4-[(5-Chloro-2-methyl-1,3-benzoxazol-7-yl)methoxy]-2,3-dimethylphenyl}propanoic acid] in this work. A pEC50 of 6.95 was found for Cc1cc2cc3c(c(COc4ccc(CCC(=O)O)c(C)c4C)c2o1)OCCO3 [Compound 90, 3-{2,3-Dimethyl-4-[(7-methyl-2,3-dihydrofuro[2,3-g][1,4]benzodioxin-5-yl)methoxy]phenyl}propanoic acid] in this work. A pEC50 of 6.82 was found for Cc1cc2cc3c(c(COc4ccc(CCC(=O)O)c(C)c4C)c2o1)OCO3 [Compound 82, 3-{2,3-Dimethyl-4-[(6-methylfuro[2,3-f][1,3]benzodioxol-4-yl)methoxy]phenyl}propanoic acid] in this work. A pEC50 of 7.77 was found for CCc1cc2cc(OC(F)F)cc(COc3ccc(CCC(=O)O)c(C)c3C)c2o1 [Compound 57, 3-(4-{[5-(Difluoromethoxy)-2-ethyl-1-benzofuran-7-yl]methoxy}-2,3-dimethylphenyl)propanoic acid] in this work. A pEC50 of 7.57 was found for CCc1cc2cc(Cl)c(OC)c(COc3ccc(CCC(=O)O)c(C)c3C)c2o1 [Compound 44, 3-{4-[(5-Chloro-2-ethyl-6-methoxy-1-benzofuran-7-yl)methoxy]-2,3-dimethylphenyl}propanoic acid] in this work. A pEC50 of 5.72 was found for Cc1cc2cc(Cl)cc(COc3ccc(CCC(=O)O)c(C)c3C)c2s1 [Compound 91, 3-{4-[(5-Chloro-2-methyl-1-benzothiophen-7-yl)methoxy]-2,3-dimethylphenyl}propanoic acid] in this work. A pEC50 of 7.06 was found for CC#Cc1cc(COc2ccc(CCC(=O)O)c(C)c2C)c2oc(CCC)cc2c1 [Compound 58, 3-{2,3-Dimethyl-4-[(2-propyl-5-prop-1-yn-1-yl-1-benzofuran-7-yl)methoxy]phenyl}propanoic acid] in this work. A pEC50 of 7.11 was found for CCOc1ccc2cc(CC)oc2c1COc1ccc(CCC(=O)O)c(C)c1C [Compound 66, 3-{4-[(6-Ethoxy-2-ethyl-1-benzofuran-7-yl)methoxy]-2,3-dimethylphenyl}propanoic acid] in this work. A pEC50 of 6.46 was found for CCc1cc2cc(F)cc(COc3c(F)cc(CCC(=O)O)cc3F)c2o1 [Compound 17, 3-{4-[(2-Ethyl-5-fluoro-1-benzofuran-7-yl)methoxy]-3,5-difluorophenyl}propanoic acid] in this work. A pEC50 of 6.47 was found for Cc1c(CCC(=O)O)ccc(OCc2cc(F)cc3cc(CC(C)C)oc23)c1C [Compound 23, 3-(4-{[5-Fluoro-2-(2-methylpropyl)-1-benzofuran-7-yl]methoxy}-2,3-dimethylphenyl)propanoic acid] in this work. A pEC50 of 6.91 was found for Cc1c(CCC(=O)O)ccc(OCc2cc(Cl)cc3cnn(C)c23)c1C [Compound 7, 3-{4-[(5-Chloro-1-methyl-1H-indazol-7-yl)methoxy]-2,3-dimethylphenyl}propanoic acid] in this work. A pEC50 of 7.17 was found for CCc1cc2cc(Cl)c(OCCOC)c(COc3ccc(CCC(=O)O)c(C)c3C)c2o1 [Compound 63, 3-(4-{[5-Chloro-2-ethyl-6-(2-methoxyethoxy)-1-benzofuran-7-yl]methoxy}-2,3-dimethylphenyl)propanoic acid] in this work. A pEC50 of 7.52 was found for Cc1c(CCC(=O)O)ccc(OCc2cc(OC(F)(F)F)cc3cc(CC(F)F)oc23)c1C [Compound 96, 3-(4-{[2-(2,2-Difluoroethyl)-5-(trifluoromethoxy)-1-benzofuran-7-yl]methoxy}-2,3-dimethylphenyl)propanoic acid] in this work. A pEC50 of 6.79 was found for Cc1oc2cccc(COc3ccc(CCC(=O)O)c(C)c3C)c2c1C [Compound 60, 3-{4-[(2,3-Dimethyl-1-benzofuran-4-yl)methoxy]-2,3-dimethylphenyl}propanoic acid] in this work. A pEC50 of 6.19 was found for Cc1c(CCC(=O)O)ccc(OCc2cc(F)cc3cc(C4CCCC4)oc23)c1C [Compound 18, 3-{4-[(2-Cyclopentyl-5-fluoro-1-benzofuran-7-yl)methoxy]-2,3-dimethylphenyl}propanoic acid] in this work.
